From PubChem BioAssay AID1963962 (Molecular Pharmacology Branch, DTP, NCI, 2024)

System: 967376-340-R-J2-PDC multicell spheroid viability
Assay: Anticancer human tumor 967376-340-R-J2-PDC patient-derived colon adenocarcinoma cell line growth inhibition [PI3K]
Conditions: for IC50: curve of first compound; for viability, T/C: stronger effect = lower value
Outline: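 Spheroid viability read-out. Co-cultures contained the tumor line plus HUVEC and human MSCs. Each agent was paired with a PI3K inhibitor (inavolisib, alpelisib, duvelisib, copanlisib) across half-log dilutions starting at clinical Cmax, or at 10 microM when Cmax was unknown.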
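Note: spheroids exposed to agents for 7 days before read-out.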
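Throughout, for viability, T/C: luminescence used as surrogate of cell viability.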

Structure (SMILES): CC(C)NCC(C(=O)N1CCN(c2ncnc3c2C(C)CC3O)CC1)c1ccc(Cl)cc1 (configuration not stated) + CC(Nc1ccc2c(c1)OCCn1cc(N3C(=O)OCC3C(F)F)nc1-2)C(N)=O
- IC50 (second compound 0.00316 µM): > 10 µM
- IC50 (second compound 0.01 µM): > 10 µM
- IC50 (second compound 0.0316 µM): > 10 µM
- IC50 (second compound 0.1 µM): > 10 µM
- IC50 (second compound 0.316 µM): > 10 µM
- IC50 (second compound 1 µM): 7.61 µM
- viability, T/C (second compound 0.00316 µM, first compound 0.0316 µM): 98.4%
- viability, T/C (second compound 0.00316 µM, first compound 0.1 µM): 118%
- viability, T/C (second compound 0.00316 µM, first compound 0.316 µM): 71.2%
- viability, T/C (second compound 0.00316 µM, first compound 1 µM): 76.8%
- viability, T/C (second compound 0.00316 µM, first compound 3.16 µM): 91.9%
- viability, T/C (second compound 0.00316 µM, first compound 10 µM): 77.9%
- viability, T/C (second compound 0.01 µM, first compound 0.0316 µM): 79.3%
- viability, T/C (second compound 0.01 µM, first compound 0.1 µM): 86.5%
- viability, T/C (second compound 0.01 µM, first compound 0.316 µM): 74.4%
- viability, T/C (second compound 0.01 µM, first compound 1 µM): 84.7%
- viability, T/C (second compound 0.01 µM, first compound 3.16 µM): 83.4%
- viability, T/C (second compound 0.01 µM, first compound 10 µM): 81.2%
- viability, T/C (second compound 0.0316 µM, first compound 0.0316 µM): 68.5%
- viability, T/C (second compound 0.0316 µM, first compound 0.1 µM): 90.4%
- viability, T/C (second compound 0.0316 µM, first compound 0.316 µM): 59.4%
- viability, T/C (second compound 0.0316 µM, first compound 1 µM): 77.1%
- viability, T/C (second compound 0.0316 µM, first compound 3.16 µM): 73.5%
- viability, T/C (second compound 0.0316 µM, first compound 10 µM): 60.9%
- viability, T/C (second compound 0.1 µM, first compound 0.0316 µM): 60.1%
- viability, T/C (second compound 0.1 µM, first compound 0.1 µM): 82%
- viability, T/C (second compound 0.1 µM, first compound 0.316 µM): 68.6%
- viability, T/C (second compound 0.1 µM, first compound 1 µM): 72.4%
- viability, T/C (second compound 0.1 µM, first compound 3.16 µM): 83.9%
- viability, T/C (second compound 0.1 µM, first compound 10 µM): 64%
- viability, T/C (second compound 0.316 µM, first compound 0.0316 µM): 57.5%
- viability, T/C (second compound 0.316 µM, first compound 0.1 µM): 60.7%
- viability, T/C (second compound 0.316 µM, first compound 0.316 µM): 57.6%
- viability, T/C (second compound 0.316 µM, first compound 1 µM): 65.5%
- viability, T/C (second compound 0.316 µM, first compound 3.16 µM): 57.8%
- viability, T/C (second compound 0.316 µM, first compound 10 µM): 62.8%
- viability, T/C (second compound 1 µM, first compound 0.0316 µM): 51.4%
- viability, T/C (second compound 1 µM, first compound 0.1 µM): 59.2%
- viability, T/C (second compound 1 µM, first compound 0.316 µM): 67.6%
- viability, T/C (second compound 1 µM, first compound 1 µM): 60.8%
- viability, T/C (second compound 1 µM, first compound 3.16 µM): 57.3%
- viability, T/C (second compound 1 µM, first compound 10 µM): 37.2%
